# Data taken from US12557812B2, “Method and composition for water treatment” (BROMINE COMPOUNDS LTD., priority 2019, dated 2026).
# “Also recorded” adds a separate entry of the source. Read-outs that look alike come from different tables or passages of the source.
# Tests used:
# [1] = system: Pseudomonas aeruginosa biofilm; assay: Sequential application of CDA then biocide on 3-day-old biofilm grown in CDC biofilm reactor (single tube method); assay type: cell-based; settings: for effect on biofilm of biocides applied alone, compared with each other: Example 8, 5 ppm, 1 h (FIG. 17)
# [2] = system: biofilm formed by mixed bacteria (Staphylococcus aureus 6538, Bacillus mycoides 6462 and Pseudomonas aeruginosa 700888); assay: Sequential application of CDA then biocide on mixed-bacteria biofilm grown in CDC biofilm reactor; assay type: cell-based
# [3] = system: P. aeruginosa strain PA14 biofilm; assay: Simultaneous application of CDA and biocide on 3-day biofilm in 24-well plates; assay type: cell-based, Pseudomonas aeruginosa; settings: for Log reduction vs. control: biocide alone / Enhancement / Log reduction vs. control: combination of the 310 nm CDA and biocide: biocide 10 ppm; for Enhancement: simultaneous 310 nm CDA; for Log reduction vs. control: combination of the 310 nm CDA and biocide: simultaneous application
# Protocol: The effect of bromine-containing biocide in combination with CDA on pre-grown biofilms was studied. The experiment was carried out utilizing (A) the P. aeruginosa strain PA14 and (B) mixed bacterial species derived from environmental and industrial water.
# Bacteria were cultured in EPRI medium supplemented with Hutners mineral solution and glucose (0.2%). Microorganisms were incubated at room temperature (22° C.), under aerobic conditions with shaking. The biofilm culture system used included polystyrene 24-well plates that were treated with protein to enhance attachment and growth of biofilm bacteria according to the method described in Davies D G, Marques C N, 2009, J Bacteriol 191:1393-1403.
# Following inoculation with 1 mL bacterial culture, spent medium was removed and replaced with sterile medium every 24 hours for 3 days, and a final medium exchange was performed 3 hours prior to treatment. Additionally, the medium was exchanged prior to treatment in order to remove planktonic bacteria. Treatments consisted of 100 μL of 310 nM CDA and bromine-containing biocide, or bromine-containing biocide alone at concentrations used in commercial water treatment, water was used as a carrier, for a contact time determined by activity of each biocide and ranging from 1 hour to 24 hours, as detailed below for each of the tested biocides.
# Following the treatment, the medium from each well was removed by pipet and 1 mL of DE neutralization broth was added in order to stop the treatment. Bacteria from each well were then removed by scraping the biofilm formed in the well with a sterile cell-scraper, and 1.0 mL of culture was transferred to chilled (4° C.) 9.0 mL DE neutralizing broth and homogenized for 15 seconds at 40,000 rpm on ice. Further dilutions were performed prior to enumeration (further neutralizing biocide activity). Recovery of bacteria were tested at different dilutions of biocide in water, in LB medium with thioglycolate and in DE neutralizing broth to ensure the active agent was properly neutralized. Viable bacteria were enumerated via the drop plate method. Each biocide was evaluated using 24-well plates with 8 wells each for the control cultures (Ctl) inoculated with P. aeruginosa but not treated, a CDA minus test (−CDA) treated with bromine-containing biocide only, and a CDA plus test treated with bromine-containing biocide and CDA (+CDA).
# [4] = system: mix of planktonic bacteria (E. Coli ATCC 11229, S. aureus ATCC 6538, Enterobacter aerogenes ATCC 130489, P. aeruginosa ATCC 13388); assay: Quantitative suspension test (modified EN 1040) on planktonic bacteria, sequential CDA then biocide; assay type: cell-based; settings: 2.5 ppm BCDMH 3 h, 310 nM CDA 1 h before; TOC=30 ppm, 30° C.
# Protocol: 310 nM CDA and bromine-containing biocide were introduced into a mix of planktonic bacteria in a medium containing different levels of organic loading (TOC 10-3000 ppm). High organic loading tends to reduce the efficacy of antimicrobial agents in industrial applications and, therefore, the test was aimed to mimic these conditions. The test was performed in accordance with the modified European standard EN 1040: 2005: “Chemical disinfectants and antiseptics—Quantitative suspension test for the evaluation of basic bactericidal activity of chemical disinfectants and antiseptics—Tests method and requirements (phase 1)”. 19 ml of phosphate buffer solution (pH=7) including tryptone in order to obtain a solution of TOC=30 ppm, and 1 ml of the tested bacteria suspension (consisted of E. Coli (ATCC 11229), S. aureus (ATCC 6538), Enterobacter aerogenes (ATCC 130489) and P. aeruginosa (ATCC 13388)), at a concentration of 1.5×10^8-5×10^8 CFU/ml, were placed into a container of suitable capacity. A stopwatch was started immediately and the container was placed in a water bath controlled at 30° C.
# The activity was determined with 2.5 ppm BCDMH alone for a contact time of 3 hours. […] Countable plates were counted and the number of colony-forming units was determined, for each plate.
# [5] = Storage stability of biocide/CDA liquid concentrates (HPLC); assay type: physicochemical
# Protocol: 22 mg of cis-2-decenoic acid (CiVentiChem, 96.72% purity) were charged into 50 ml flask, equipped with a stirrer 3.99 gr of C-103 (ICL, batch 640160147) were added, followed by 9.97 gr of PEG200 (Merck 8.07483.5000 Lot 56904983 451), 5.95 gr of DI water and 22 mg of BHT (Aldrich B1378-100G, BCBH9491V). The obtained solution was stirred till complete clarification; sonication at +30° C. is recommended if some particles are observed. Clear colorless solution of a total […] and 20:50:30:0.1:0.1 weight ratio of C103-PEG200-H2O-CDA-BHT was obtained.
# The solution was tested to determine the stability of the biocide and CDA and under storage at 25° C. over a two-month period.
# 47.6 mg or cis-2-decenoic acid (CiVentiChem, 96.72% purity) were charged into 50 ml flask, equipped with a stirrer. 9.01 gr of Bronopol (ICL, batch 17101607) were added, followed by 18.03 gr of propylene glycol (Biolab 16200201 Lot 1007861), 3.0 gr of DI water and 31.2 mg of BHT (Aldrich B1378-100G, BCBH9491V). After stirring for several minutes, undissolved traces of BHT were filtered through filtering paper for BHT particle removal. Clear colorless solution of a total 30 gr and 30:60:10:0.158:0.1 weight ratio of Bronopol-PG-H2O-CDA-BHT was obtained.
# P. aeruginosa biofilm = assay: Simultaneous application of CDA salt form and biocide on 3-day biofilm, CDC biofilm reactor, pH 8-9; assay type: cell-based, Pseudomonas aeruginosa; settings: 310 nM CDA, 1 h
# [6] = Stepwise acidification of CDA sodium/lithium salt (pKa); assay type: physicochemical
smiles,measurement,setting,value
"OCl [sodium hypochlorite, Sodium hypochlorite, reference compound]",reduction by biocide/CDA combination versus the solely applied biocide,[1],2 log units
same,"effect on biofilm of biocides applied alone, compared with each other",[1],comparable effect
"CC1(C)C(=O)N(Cl)C(=O)N1Br [BCDMH, 1-bromo-3-chloro-5,5-dimethylhydantoin]",enhancement by combined treatment relative to biocide alone,"[1]; 10 ppm BCDMH, 31 nM commercial CDA (FIG. 13)",4.5 log units
same,enhancement by combined treatment relative to biocide alone,"[1]; 10 ppm BCDMH, 310 nM commercial CDA (FIG. 13)",4.5 log units
same,enhancement by combined treatment relative to biocide alone,"[1]; 10 ppm BCDMH, 3100 nM commercial CDA (FIG. 13)",5.5 log units
same,effect of 5.0 ppm biocide with 310 nM CDA relative to 10 ppm biocide without CDA,"[1]; Example 3, sequential, FIG. 14",comparable
same,reduction by biocide/CDA combination versus the solely applied biocide,"[1]; Example 8, 5 ppm biocide/310 nM CDA, sequential (FIG. 17)",4.5 log units
same,"effect on biofilm of biocides applied alone, compared with each other",[1],comparable effect
same,Log reduction vs. control: biocide alone,"[1]; biocide 10 ppm, 1 h contact time, 3-day-old biofilm",~3.5 log units
same,Enhancement,"[1]; biocide 10 ppm, 310 nM CDA combination vs biocide alone",~2.5 log units
same,Log reduction vs. control: combination of the 310 nM CDA and biocide,"[1]; biocide 10 ppm, 1 h CDA 310 nM then 1 h biocide",~6 log units
same,enhancement by combined treatment relative to biocide alone,"[1]; text of Example 2, biocide 10 ppm, 310 nM commercial CDA (97% by GC)",~2 log units
same,enhancement by combined treatment relative to biocide alone,"[1]; text of Example 2, biocide 10 ppm, 310 nM crude CDA (90% by GC)",~2 log units
same,biofilm reduction by biocide alone,"[1]; text of Example 2, biocide 10 ppm, 1 h",~3 log units
same,biofilm reduction by biocide alone,"[2]; biocide 5 ppm or 10 ppm, mixed bacteria biofilm",reduces the biofilm
same,enhancement by combined treatment relative to biocide alone,"[2]; biocide 5 ppm, 310 nM commercial CDA, mixed bacteria biofilm (FIG. 12A)",~2.5 log units
same,enhancement by combined treatment relative to biocide alone,"[2]; biocide 10 ppm, 310 nM commercial CDA, mixed bacteria biofilm (FIG. 12B)",~5.5 log units
same,Log reduction vs. control: biocide alone,"[2]; biocide 10 ppm, 1 h, biofilm formed by mixed bacteria",~2 log units
same,Enhancement,"[2]; biocide 10 ppm, 310 nM CDA combination vs biocide alone, mixed bacteria biofilm",~5.5 log units
same,Log reduction vs. control: combination of the 310 nM CDA and biocide,"[2]; biocide 10 ppm, 1 h CDA 310 nM then 1 h biocide, mixed bacteria biofilm",~7.5 log units
same,log reduction of biocide and CDA compared with biocide alone,"[3]; 10 ppm BCDMH, 310 nM CDA, one hour (FIG. 4)",2
same,Log reduction vs. control: biocide alone,[3]; 2 hours contact time,~4 log units
same,Enhancement,[3]; 2 hours contact time,~2 log units
same,Log reduction vs. control: combination of the 310 nm CDA and biocide,[3]; 2 hours contact time,~6 log units
same,enhancement by CDA and biocide in sequence compared with biocide without CDA,[4],2 log units
"CCCCCCC/C=C\C(=O)O [CDA, cis-2-decenoic acid]",effect of CDA alone on biofilm compared to the control,[1],no useful effect
same,effect of CDA alone on biofilm compared to the control,"[1]; 310 nM CDA, commercial (97%) or crude (90%), 1 h",no useful effect
same,biocidal action of CDA alone (reduction of bacterial counts),"[1]; CDA on its own, broad concentration range, even >3000 nM",failed to demonstrate biocidal action
same,effect of CDA alone on biofilm compared to the control,"[2]; 310 nM commercial CDA, mixed bacteria biofilm",no useful effect
same,degradation under storage (HPLC),"[5]; Example 6 concentrate C103-PEG200-H2O-CDA-BHT 20:50:30:0.1:0.1, 25° C., two months",Neither DBNPA nor CDA underwent degradation
same,degradation under storage (HPLC),"[5]; Example 7 concentrate Bronopol-PG-H2O-CDA-BHT 30:60:10:0.158:0.1, 25° C., two months",Neither bronopol nor CDA underwent degradation
same,effect of CDA alone on biofilm compared to the control,P. aeruginosa biofilm,no useful effect
same,pKa,[6],6.5 to 7.5
"O=[N+]([O-])C(Br)(CO)CO [Bronopol, 2-bromo-2-nitro-1,3-propanediol]",reduction of number of bacteria by addition of CDA to the biocide treatment,"[3]; 10 ppm bronopol, 310 nM CDA, two hours of treatment (FIG. 2A)",more than an order of magnitude
same,Log reduction vs. control: biocide alone,[3]; 24 hours contact time,~6 log units
same,Log reduction vs. control: biocide alone,"[3]; 24 hours contact time, listed as bronopol",very effective in reducing biofilm
same,Enhancement,[3]; 24 hours contact time,~3 log units
same,Log reduction vs. control: combination of the 310 nm CDA and biocide,[3]; 24 hours contact time,effective in eradicating P. aeruginosa biofilm; also recorded: biofilm eradication
same,degradation under storage (HPLC),[5],Neither bronopol nor CDA underwent degradation
